The values that follow come from paper PMC6874530, “Structural analysis identifies an escape route from the adverse lipogenic effects of liver X receptor ligands” (Communications Biology, 2019).

In assay [1] the target is T1, LXRα (Homo sapiens, UniProt Q13133).
T1 construct: expression vectors pSG5-Gal4-LXRα LBD or pSG5-Gal4-LXRβ LBD; expressed in transfected cells; host or cells: U2OS osteosarcoma cells
T1 sequence (Q13133 209-447 limits assumed): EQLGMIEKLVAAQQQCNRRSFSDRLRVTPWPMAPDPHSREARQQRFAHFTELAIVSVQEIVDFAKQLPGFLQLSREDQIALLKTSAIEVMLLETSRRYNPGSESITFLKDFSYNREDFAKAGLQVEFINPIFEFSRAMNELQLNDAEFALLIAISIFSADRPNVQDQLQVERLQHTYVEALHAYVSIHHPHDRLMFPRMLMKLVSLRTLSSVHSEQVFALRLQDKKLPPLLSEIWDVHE
Kind of assay: Gal4 one hybrid reporter gene (transactivation) assay in U2OS cells, LXRα. The format is cell-based. The method, then:
(§1) Transactivation assays were performed in U2OS osteosarcoma cells (ATCC, USA). […] Ligands were added at ten different concentrations 2 h post transfection and the luciferase activity was measured after 40 h.
Background: A reporter such as luciferase makes a cellular process visible.

The target of assay [2] is T2, LXRβ LBD (Homo sapiens, UniProt P55055).
T2 sequence (P55055 215-460 limits assumed): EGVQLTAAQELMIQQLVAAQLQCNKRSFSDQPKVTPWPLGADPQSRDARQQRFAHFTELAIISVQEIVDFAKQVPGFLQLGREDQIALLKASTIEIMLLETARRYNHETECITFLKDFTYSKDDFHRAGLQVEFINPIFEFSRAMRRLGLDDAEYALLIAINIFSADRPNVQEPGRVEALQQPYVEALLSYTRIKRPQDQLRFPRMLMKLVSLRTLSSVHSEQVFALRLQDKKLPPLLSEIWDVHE
The experiment in a line: differential HDX-MS of LXRβ LBD (apo vs ligand-bound). Further details: human his-tagged LXRβ LBD (216-461); His tag; made in house; host or cells: Escherichia coli BL21(DE3). The following applies: after 30 s of deuterium exchange. As to the method:
(§2) Prior to the deuterium incorporation experiments, 10 µM apo LXR was incubated with 10× excess of ligand or equal volume of DMSO for 30 min at room temperature. In the experiments with cofactors, 15× excess of the SRC1 coactivator peptide and the NCOR1 corepressor peptide were added to the ligand-bound or apo proteins, respectively, and incubated for 30 min at room temperature. […] A fully deuterated sample was generated by incubating protein with 4 M guanidine-HCl in D2O for 30 min at 45 °C. Exchange reactions were performed with a CTC PAL sample handling robot (LEAP Technologies). Labeling times were 30, 60, 180, 600, and 1800 s in the kinetics experiments. Differential HDX of a complete compound selection was measured after 30 and 600 s of labeling time points. Reactions were conducted by incubating 4 µl of LXR with 50 µl of D2O buffer (containing 25 mM Tris-HCl (pD 7.6), 50 mM NaCl, 10% glycerol, and 1 mM TCEP). The exchange reaction was stopped by the addition of 50 µl of quench solution (3 M urea, 0.1% TFA) followed by immediate injection into a Enzymate BEH Pepsin 2.1 × 30 mm Column (Waters, UK) for protein digestion (2 min at 24 °C). Peptic digest was further injected on a Waters nanoACQUITY UPLC System where peptides were first desalted by trapping for 3 min on a VanGuard Pre-Column Acquity UPLC BEH C18 (1.7 μm; 2.1 × 5 mm), and then eluted over a 6-min 5–40% (vol/vol) acetonitrile (containing 0.1% formic acid) gradient into a Waters Synapt G2-Si mass spectrometer. Peptide separation was conducted at 0.1 °C. All exchange reactions were performed in triplicates.
(§3) Peptides from three samples of non-deuterated LXR were identified by using the ProteinLynx Global Server (PLGS Waters, UK). Peptides with an intensity of over 5000, a mass error < 5 ppm, and present in at least two of the three data acquisitions were pooled and imported into the DynamX data analysis software (Waters, UK). After a first round of automated spectral processing by using DynamX, each peptide was inspected manually for suitability for further analysis.
(§4) For pairwise comparison, MEMHDX software was used to identify statistically significant changes of deuterium uptake. For all peptides, a value of relative exchange per amino acid was corrected to back exchange. The mean deuteration level per amino acid was calculated by using Matlab (Mathworks)[69] and subsequently mapped onto the crystal structures with PyMOL (Schrodinger LLC). For structural representation, loop modeling with MOE (Chemical Computing Group Inc.) was applied on 2ACL.pdb file for LXRα LBD, and 1PQC.pdb for LXRβ LBD.

The target of assay [3] is T3, LXRβ/SRC1 (Homo sapiens, UniProt P55055).
T3 construct: human his-tagged LXRβ LBD (216-461); His tag; made in house; host or cells: Escherichia coli BL21(DE3)
T3 sequence (P55055 215-460 limits assumed): T2 sequence (P55055 215-460 limits assumed)
T3 sequence (Q15788 with tags, fused parts or gaps partner limits assumed): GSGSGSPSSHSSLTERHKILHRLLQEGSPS
The experiment in a line: SPR cofactor recruitment, LXRβ LBD binding to immobilized SRC1 coactivator peptide. The method, then:
The peptides carried an N-terminal biotin for surface immobilization on a Xantec NID200M Sensor Chip (NTA-derivatized carboxymethyldextran hydrogel, XanTec bioanalytics GmbH) preloaded with Ni^2+. […] LXRα and LXRβ LBD proteins were serially diluted in SPR running buffer (10 mM HEPES, 150 mM NaCl, and 0.05% Tween 20, pH 7.4) to a broad range of concentrations (0.02–10 µM) and equilibrated with tested compound (50 μM) prior to the sample injection over a modified biosensor surface. LXR-ligand complexes were injected in quick succession for 120 s over immobilized cofactor peptides and reference surfaces along with blank samples followed by 900 s of dissociation. The binding level at equilibrium was monitored for all samples, including the reference sample that contained DMSO at equal amount as tested compounds. All data were normalized to this reference sample in order to quantify the effects on peptide binding without bias by receptor instability. The surface was regenerated with 0.5% (w/v) SDS after each injection. Binding responses in the steady-state region of the sensorgrams were plotted against LXR LBD concentration to determine the overall equilibrium-binding affinity by fitting the data to nonlinear regression (Prism 8; GraphPad).

In assay [4] the target is T4, LXRα LBD (Homo sapiens, UniProt Q13133).
T4 sequence (Q13133 200-447): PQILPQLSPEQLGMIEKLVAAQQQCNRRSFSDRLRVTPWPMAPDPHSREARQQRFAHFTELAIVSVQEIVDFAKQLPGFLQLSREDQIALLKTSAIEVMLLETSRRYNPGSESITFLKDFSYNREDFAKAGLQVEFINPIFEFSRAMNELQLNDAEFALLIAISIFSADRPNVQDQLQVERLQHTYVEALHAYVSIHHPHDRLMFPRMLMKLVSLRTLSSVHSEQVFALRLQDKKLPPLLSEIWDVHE
The experiment in a line: biochemical. Conditions: Receptor-binding affinity pKi LXRα, value (SD, n independent experiments).
Description: (§5) The compounds were run in triplicate (binding assay) or in quadruplicate (transactivation assay). Standard deviations are indicated for individual experiments run more than once.

Assay [5] addresses T2, LXRβ LBD. The experiment in a line: biochemical. The following applies: Receptor-binding affinity pKi LXRβ, value (SD, n independent experiments).
Description: as §5
Assay [6] has as its target T5, LXRβ (Homo sapiens, UniProt P55055).
T5 construct: expression vectors pSG5-Gal4-LXRα LBD or pSG5-Gal4-LXRβ LBD; expressed in transfected cells; host or cells: U2OS osteosarcoma cells
T5 sequence (P55055 222-460 limits assumed): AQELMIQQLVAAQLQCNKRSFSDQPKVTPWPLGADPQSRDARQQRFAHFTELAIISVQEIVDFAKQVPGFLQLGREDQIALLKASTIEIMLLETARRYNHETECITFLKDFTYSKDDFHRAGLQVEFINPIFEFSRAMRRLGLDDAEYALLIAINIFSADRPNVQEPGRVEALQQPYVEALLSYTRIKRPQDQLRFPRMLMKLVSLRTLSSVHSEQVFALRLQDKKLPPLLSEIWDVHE
Kind of assay: Gal4 one hybrid reporter gene (transactivation) assay in U2OS cells, LXRβ. The format is cell-based. The method, then: as §1

The target of assay [7] is T4, LXRα LBD. Kind of assay: differential HDX-MS of LXRα LBD (apo vs ligand-bound). Conditions: HDX-MS. Further details: Human his-tagged LXRα LBD (200-447); His tag; made in house; host or cells: Escherichia coli BL21(DE3). As to the method: as §2, §3, §4

Each structure is given as a SMILES string.

In general, Kd refers to a measure of binding affinity in units of concentration. By Ki is commonly meant the dissociation constant of the complex between target and ligand, obtained from inhibition or displacement. A lower Ki goes with tighter binding.

As for `C[C@H](CC[C@@H]1OC1(C)C)[C@H]1CC[C@H]2[C@@H]3CC=C4C[C@@H](O)CC[C@]4(C)[C@H]3CC[C@]12C` [24,25EC, 24(S),25-epoxycholesterol, reference compound], the “agonist activity in the Gal4 reporter gene assay, LXRα” value in assay [1] is recorded as “No signal was observed”. Moreover, the EC50 in assay [1] (U2OS cells, Gal4-LXRα LBD, value (SD, n), read-out: LXRα transactivation pEC50 (converted)) was above 50100 nM; in assay [6] (LXRβ transactivation pEC50, U2OS cells, Gal4-LXRβ LBD, value (SD, n)), above 50100 nM. Further, the “protection of LXRβ H11–H12 from deuterium exchange” value in assay [2] is given as 10%. This compound also had a dissociation constant Kd in assay [3] of 2500 nM. Moreover, the results for the inhibition constant (Ki) in assay [4] and in assay [5] were 275 nM and 132 nM, respectively. The “agonist activity in the Gal4 reporter gene assay, LXRβ” value in assay [6] was “No signal was observed”. In addition, the “stabilization of LXRα H12” value in assay [7] was “did not stabilize LXRα H12”.
